Measured values: patent US20240285680A1, “METHOD OF TREATING ALZHEIMER'S DISEASE” (Vector Vitale IP LLC, priority 2021, published 2024)
Where “and” joins values, the source holds several entries; their conditions need not be identical. Equal entries are not always repeated.

Key:
[1] = Body weight changes in rat models of Aβ1-40-induced AD; assay type: in vivo; conditions: Aβ1-40 AD rats, treated group; baseline before the operation
Description: Male Wistar rats (300-500 g) were used. The animals were maintained under standard conditions in the vivarium of the ESC “Institute of Biology and Medicine” of Taras Shevchenko National University of Kyiv. They were given ad libitum access to food and water.
Alzheimer's Disease was induced in old male rats (14 months old) by giving them intrahippocampal injections of aggregated Amyloid Beta (Aβ 1-40) Peptide (human) (Cayman Chemical Company) and Amyloid Beta (Aβ 25-35) Peptide (human) (Tocris Bioscience, Brostol). Aβ1-40 and Aβ 25-35 were dissolved in bidistilled water to the concentration of 15 μmol/L and incubated at 37° C. for 24 hours for aggregation. Aβ conglomerates were broken up by ultrasound and sterilized immediately prior to injection.
Rats were anesthetized using a mixture of ketamine (75 mg/kg, diluted in sterile water for injection, Sigma, USA) and 2% xylazine (100 μl/rat, Alfasan International B.V., Netherlands) administered intraperitoneally in a total volume of 1 ml. A rat was placed in a stereotaxic apparatus (SEZH-4) modified for rats. The animal was then scalped from the point of intersection of the sagittal suture with bregma (zero point): 2 mm distally, 2 mm laterally and 3.5 mm in depth and a trephine opening was made with an injection needle, directly into the hippocampus. […]

[2] = test system: tyrosine hydroxylase (TH); assay: Immunohistochemical identification of tyrosine hydroxylase in hippocampus, Aβ1-40-induced AD rats; assay type: in vivo, rat; conditions: Aβ1-40 AD rats; TH-positive hippocampal cells; individual animals 661 E, F, G; listed as Zn
Experimental: (§1) Degeneration of the hippocampal neurons was assessed using immunohistochemical analysis for the expression level of tyrosine hydroxylase (TH). Immunohistochemical staining was performed using primary anti-TH antibodies at a 1:200 dilution (Millipore, AB152). Endogenous peroxidase activity was blocked with a blocking reagent (Dako, EnVision Flex, DM821). Nonspecific antibody binding was blocked using 4% dry milk dissolved in Tris-buffered saline (TBS) containing 0.2% Triton X-100.
(§2) The primary antibody was diluted in TBS containing 0.2% Triton X-100 and applied to tissue sections. The sections were then incubated overnight (+4° C.). Secondary antibodies (anti-rabbit biotinylated antibodies, 1:200) were incubated for 60 minutes. The immunoreaction was developed using diaminobenzidine (Dako, EnVision) applied for 5 minutes. The results of immunohistochemical staining were evaluated at the light-optical level using a Zeiss Primo Star microscope. The intensity of TH-positive staining was evaluated using a semiquantitative scoring system as described in the Quantitative Scoring Method ([http://www.ihcworld.com/ihc_scoring.htm]) taking into account the number of positive (stained) cells and the intensity of staining (Table 1). The results were presented as a quick score (Q) calculated by the following formula: Q=P×I, where P is the percentage of positive cells and I is the staining intensity.

[3] = test system: rat models of Aβ1-40-induced Alzheimer's disease; assay: Barnes maze memory and cognitive flexibility tests, Aβ1-40-induced AD rats; assay type: in vivo; conditions: Aβ1-40 model; for Time spent near the entrance to the “escape box”, after surgery / Time spent near the entrance to the “escape box”, % of changes / Time spent near the entrance to the “escape box”, before surgery: cognitive flexibility; for Time spent near the entrance to the “escape box”, after surgery / Time spent to find the “escape box”, after surgery: after surgery and treatment; for Time spent near the entrance to the “escape box”, after surgery / Time spent near the entrance to the “escape box”, before surgery / Time spent to find the “escape box”, after surgery / Time spent to find the “escape box”, before surgery: M ± SD; for Time spent near the entrance to the “escape box”, % of changes / Time spent to find the “escape box”, % of changes: after vs before surgery; for Time spent near the entrance to the “escape box”, before surgery / Time spent to find the “escape box”, before surgery: baseline before surgery
Experimental: Kinga Gawel et al., Assessment of spatial learning and memory in the Barnes maze task in rodents-methodological consideration, Naunyn Schmiedebergs Arch Pharmacol. 2019; 392(1): 1-18. doi: 10.1007/s00210-018-1589-y.
The other holes remained open.
The rat was allowed to move freely around the table for 2-3 minutes.
Fifteen minutes after the habituation session, on the 2nd, 3rd and 4th days of the experiment, the task training was repeated 4 times every 15 minutes (min) (3 min on the table surface+1 min in the “escape box” with the light off).
The table surface was disinfected after each trial.
18 days after the operation, the animals had another 4-day training session (probe phase) with a changed location of the “escape box”.
The following time periods were measured in seconds: 1) the time the animal spent to find the entrance to the “escape box” (assessment of spatial learning and spatial memory associated with the hippocampal function); 2) the time the animal spent near the entrance (assessment of cognitive flexibility associated with the function of the frontal cortex of the brain)—the less time the animal spends near the closed entrance, the quicker it understands that it is necessary to look for escape elsewhere.

[4] = test system: tyrosine hydroxylase (TH); assay: Immunohistochemical identification of tyrosine hydroxylase in hippocampus, Aβ25-35-induced AD rats; assay type: in vivo, rat; conditions: Aβ25-35 AD rats
Experimental: as §1, §2

[5] = test system: CD86; assay: CD86 expression in circulating phagocytes, Aβ25-35 model; assay type: in vivo, rat; conditions: Aβ25-35 AD rats
Experimental: The phenotypic profile of phagocytes of various localization was characterized by the expression of markers of functional maturity and metabolic polarization (CD206 and CD86), which was determined by flow cytometry and the use of monoclonal antibodies of appropriate specificity marked with fluorescent dyes (Abcam, Becton Dickinson).

[6] = test system: rat models of Aβ25-35-induced Alzheimer's disease; assay: Barnes maze memory and cognitive flexibility tests, Aβ25-35-induced AD rats; conditions: for Time spent near the entrance to the “escape box”, after surgery / Time spent near the entrance to the “escape box”, % of changes / Time spent near the entrance to the “escape box”, before surgery / Time spent to find the “escape box”, after surgery / Time spent to find the “escape box”, % of changes / Time spent to find the “escape box”, before surgery: Aβ25-35 model; for Time spent near the entrance to the “escape box”, after surgery / Time spent near the entrance to the “escape box”, % of changes / Time spent near the entrance to the “escape box”, before surgery: cognitive flexibility; for Time spent near the entrance to the “escape box”, after surgery / Time spent to find the “escape box”, after surgery: after surgery and treatment; for Time spent near the entrance to the “escape box”, after surgery / Time spent near the entrance to the “escape box”, before surgery / Time spent to find the “escape box”, after surgery / Time spent to find the “escape box”, before surgery: M ± SD; for Time spent near the entrance to the “escape box”, % of changes / Time spent to find the “escape box”, % of changes: after vs before surgery; for Time spent near the entrance to the “escape box”, before surgery / Time spent to find the “escape box”, before surgery: baseline before surgery
Description: An animal learns to remember the location of the target zone (“escape box”) using peripheral visual cues in the testing area as reference points.
Barnes maze used consisted of a circular table with 16 circular holes around its circumference. Peripheral visual cues, such as black marks (a triangle on one wall and two parallel strips on the opposite wall), were placed for better orientation of the animal. Under one of the holes an “escape box” containing standard filler for animals was fixed. Each animal was assigned its number of the hole to which the “escape box” was fixed. The other holes remained open. Before performing the probe phase (after the operation), the number of the hole was changed.
On the 1st day of the experiment, during the first training of rats, a habituation session was performed, which was not repeated during the probe phase. A rat was placed in the center of the circular table and kept under a non-transparent hood for 10 seconds. The light above the table was then turned on and the hood lifted. The rat was allowed to move freely around the table for 2-3 minutes.
Fifteen minutes after the habituation session, on the 2nd, 3rd and 4th days of the experiment, the task training was repeated 4 times every 15 minutes (min) (3 min on the table surface+1 min in the “escape box” with the light off). The time during which the animal managed to reach the “escape box” was recorded at each trial.
Short-term memory of the animals was tested on the 5th day, and long-term memory was tested on the 9th day (5th day after the last training). All the holes of the maze were closed, and the rat was allowed to freely explore the open arena for 90 seconds to find “its” corresponding hole on the table top (under which the “escape box” was previously located) based on previously acquired skills. The amount of time the animal spent searching for the correct hole, and the time it spent near the hole was recorded. The table surface was disinfected after each trial.
18 days after the operation, the animals had another 4-day training session (probe phase) with a changed location of the “escape box”. As in the case before the operation, short-term memory was tested on the 5th day, and long-term memory was tested on the 9th day (5th day after the last training session).

[7] = long-term memory, 5 days following training
[8] = short-term memory, 24 hours following training

^64Zn-aspartate
body weight before the operation [1]: 432.1 ± 29.7 g | Q = P × I [2]: 4 and 2 and 6 | Time spent near the entrance to the “escape box”, after surgery ([3]; 24 hours following training): 22.57 ± 7.77 s | Time spent near the entrance to the “escape box”, % of changes ([3]; 24 hours following training): −31.6% | Time spent near the entrance to the “escape box”, before surgery ([3]; 24 hours following training): 33 ± 7.39 s | Time spent near the entrance to the “escape box”, after surgery ([3]; 5 days following training): 29 ± 6.14 s | Time spent near the entrance to the “escape box”, % of changes ([3]; 5 days following training): 23.03% | Time spent near the entrance to the “escape box”, before surgery ([3]; 5 days following training): 23.57 ± 6.61 s | Time spent to find the “escape box”, after surgery [3, 7]: 5 ± 1.54 s | Time spent to find the “escape box”, % of changes [3, 7]: −70.59% | Time spent to find the “escape box”, before surgery [3, 7]: 17 ± 6.74 s | Time spent to find the “escape box”, after surgery [3, 8]: 4.14 ± 0.74 s | Time spent to find the “escape box”, % of changes [3, 8]: −42.04% | Time spent to find the “escape box”, before surgery [3, 8]: 7.14 ± 1.49 s | Q = P × I ([4]; TH-positive hippocampal cells, individual animals 663 A, B, listed as Zn): 6 and 4 | staining intensity of TH-positive cells ([4]; hippocampus): no effect | tyrosine hydroxylase expression, Q value (group mean) ([4]; hippocampus): 5.0±1.4 | expression of CD86 by circulating phagocytes [5]: elevated | fraction of CD86+ cells among circulating phagocytes [5]: increase | tendency towards impairment of long-term memory ([6]; Aβ25-35 AD rats): not improved | Time spent near the entrance to the “escape box”, after surgery ([6]; 24 hours following training): 30.67 ± 7.32 s | Time spent near the entrance to the “escape box”, % of changes ([6]; 24 hours following training): 12.2% | Time spent near the entrance to the “escape box”, before surgery ([6]; 24 hours following training): 27.33 ± 4.06 s | Time spent near the entrance to the “escape box”, after surgery ([6]; 5 days following training): 18.17 ± 5.38 s | Time spent near the entrance to the “escape box”, % of changes ([6]; 5 days following training): −40.76% | Time spent near the entrance to the “escape box”, before surgery ([6]; 5 days following training): 30.67 ± 4.32 s | Time spent to find the “escape box”, after surgery [6, 7]: 21.83 ± 12.53 s | Time spent to find the “escape box”, % of changes [6, 7]: 48.86% | Time spent to find the “escape box”, before surgery [6, 7]: 14.67 ± 3.53 s | Time spent to find the “escape box”, after surgery [6, 8]: 8.33 ± 5.76 s | Time spent to find the “escape box”, % of changes [6, 8]: −37.5% | Time spent to find the “escape box”, before surgery [6, 8]: 13.33 ± 7.8 s
